From PubChem BioAssay (NCI)
Several values for one entry are separate records, joined by “and”; a condition that tells them apart may be missing. Equal values may be shown once.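 Five compound concentrations were applied to cells in 96-well plates for 48 hours; endpoints were derived by simple linear interpolation of the resulting dose-response curve. At the GI50, growth is halved. TGI marks complete inhibition of growth.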

What was measured:
Assay in all cases: DTP human tumour cell line panel, 48 h
COLO 205 colon = test system: COLO 205 colon
IGROV1 ovarian = test system: IGROV1 ovarian
NCI-H522 lung = test system: NCI-H522 lung
NCI/ADR-RES ovarian = test system: NCI/ADR-RES ovarian
OVCAR-5 ovarian = test system: OVCAR-5 ovarian
PC-3 prostate = test system: PC-3 prostate
SK-MEL-2 melanoma = test system: SK-MEL-2 melanoma
SK-MEL-28 melanoma = test system: SK-MEL-28 melanoma
U251 CNS = test system: U251 CNS

| Structure (SMILES) | GI50 (COLO 205 colon) | TGI (COLO 205 colon) | GI50 (IGROV1 ovarian) | TGI (IGROV1 ovarian) | GI50 (NCI-H522 lung) | TGI (NCI-H522 lung) [µM] | GI50 (NCI/ADR-RES ovarian) | TGI (NCI/ADR-RES ovarian) [µM] | GI50 (OVCAR-5 ovarian) | TGI (OVCAR-5 ovarian) | GI50 (PC-3 prostate) | TGI (PC-3 prostate) [µM] | GI50 (SK-MEL-2 melanoma) | TGI (SK-MEL-2 melanoma) | GI50 (SK-MEL-28 melanoma) | TGI (SK-MEL-28 melanoma) [µM] | GI50 (U251 CNS) | TGI (U251 CNS) [µM] |
| --- | --- | --- | --- | --- | --- | --- | --- | --- | --- | --- | --- | --- | --- | --- | --- | --- | --- | --- |
| CCOC(=O)c1c2c(c(O)c3ccccc3c(O)n(Cc3ccc(OC)cc3)c1C)C(=O)C=CC2=O | > 100 µM | > 100 µM | > 100 µM | > 100 µM | > 100 µM | > 100 | > 100 µM | > 100 | > 100 µM | > 100 µM | > 100 µM | > 100 | > 100 µM | > 100 µM | > 100 µM | > 100 | > 100 µM | > 100 |
| Cc1ccc([N+](=O)[O-])cc1NC(=O)Nc1cccc(F)c1 | 8.85 µM | > 100 µM | 5.78 µM | 35.9 µM | 2.64 µM | 15.7 | 3.37 µM | > 100 | 9.82 µM | > 100 µM | 3.44 µM | > 100 | 8.82 µM | 89.2 µM | 19.8 µM | > 100 | 3.82 µM | 18.4 |
| C[C@@H]1COCCN1c1cc(C2([S@](C)(=N)=O)CC2)nc(-c2ccnc3[nH]ccc23)n1 | 6.18 µM and > 10 µM | 43.1 µM and > 10 µM | 4.24 µM and 2.23 µM | 68.6 µM and > 10 µM | 8.61 µM and 4.82 µM | > 84 | 26.2 µM and > 10 µM | > 100 | 5.03 µM and 6.98 µM | 99.8 µM and > 10 µM | 12.2 µM and > 10 µM | > 100 | 3.74 µM and 1.56 µM | 26.2 µM and > 10 µM | 10.9 µM and > 10 µM | > 79.7 | 9.81 µM and 5.08 µM | > 100 |
| CCCCON(OC(=O)c1ccccc1)C(=O)c1ccccc1 | > 100 µM | > 100 µM | > 100 µM | > 100 µM | > 100 µM | > 100 | > 100 µM | > 100 | > 100 µM | > 100 µM | > 100 µM | > 100 | > 100 µM | > 100 µM | > 100 µM | > 100 | > 100 µM | > 100 |
